{
  "source": "patent US20250352494A1",
  "about": "“TRANSDERMAL DELIVERY DEVICE FOR PEPTIDE DELIVERY AND METHODS OF USE” (PassPort Technologies, Inc., priority 2022, published 2025)",
  "key": {"in vivo [1]": {"assay": "in vivo", "conditions": "for bioavailability: 2 mg; for PK Profile: Table 40", "experimental": "(§1) Animal Studies in Rats. […] In vivo PK studies were performed in CD rats (Charles River Laboratories) according to IACUC-approved Animal Protocols. Each dosing formulation was prepared prior to the experiments. The patch was manufactured according to dry patch manufacturing procedure. The animals for transdermal applications were shaved 1 day before the dosing date. The transdermal microporation was applied using the Applicator and Porator. Then, the patch was placed to cover the porated area for 1 day or a designated duration. After the last blood sampling, the patch was collected, and the application site was wiped by paper or cotton to recover the remaining drug on the skin. The blood samples were collected from the tail vein and transferred into K2-EDTA tube at the designated sampling time. The samples were centrifuged at 4° C., and then plasma samples were obtained. All samples were stored at −80° C. freezer until bioassay.\nThe plasma samples were stayed at room temperature for 30 minutes. The plasma (50 μL) was transferred into a 2 mL Eppendorf tube (Protein LoBind), then add 50 μL of Acetonitrile/DMSO (4:1, v/v), and vortex the tube for a couple of seconds. The samples were centrifuged for 15 minutes at 3700 rpm, 4° C. The 150 μL of mobile phase A (0.1% formic acid in water) were put into a new tube, then 50 μL of the supernatant were transferred into the tube and the samples were vortexed for 5 minutes. The supernatant was pulled out and the solution was filtered through a 0.20 μm PTFE membrane into an autosampler vial (LCMSMS)."}, "[2]": {"assay": "p3-Alcβ9-19 in mouse plasma (sELISA) after transdermal microporation patch or subcutaneous injection", "type": "in vivo, wild-type mice", "conditions": "mice plasma", "excerpt": "(§2) Animal Studies in Mice. […] The hair was removed prior to the experiments. […] Exp. 21 (2008).\nsELISA method for p3-Alcβ9-19 Analysis."}, "in vivo [3]": {"assay": "in vivo", "excerpt": "as §2\nIgG was purified with antigen-coupled resin and conjugated to biotin. Horseradish peroxidase-conjugated streptavidine was from Amersham/GE Healthcare (Cat #RPN1051, Little Chalfont, UK), and the tetramethylbenzidine (TMB) microwell peroxidase substrate system was from SeraCare Life Sciences Inc. (Cat #5120-0075, Milford, MA, USA). The mice were anesthetized by using 1% isoflurane, and CSF was collected from the cisterna magna in mice as described above, and then mice were sacrificed.\nDis. (2014) 39, 861-870, p3-Alcβ37- and p3-Alcβ40-specific sELISA systems, described in Hata et al “Decrease in p3-Alcβ37 and p3-Alcβ40, products of Alcadeinβ generated by γ-secretase cleavages, in aged monkeys and patients with Alzheimer's disease” Alzheimers Dement TRCI (2019) 5, 740-750.\nThe next day, the non-binding antibody was removed with wash buffer (0.05% Tween-20 in PBS). The plasma and CSF were diluted 200-fold and 20-fold with EIA buffer (1% BSA, 0.05% Tween-20), respectively. The sample solution was added to 96 well plates and stayed overnight at 4° C. The next day, after washing with wash buffer, purified biotinylated IgG dissolved in PBS was added to […] in each well, and the mixture was kept overnight at 4° C. The next day, the unreacted antibody was washed with wash buffer, streptavidin-HRP (1/5000 in PBS) was added, and the reaction was carried out at 4° C. for 6 to 8 hours. After washing with Wash buffer, TMB color-developing substrate was added, and the mixture was reacted at room temperature for 30 minutes under light-protection. The color development was stopped by adding 1 N H2SO4, and the samples were measured by a plate reader at 450 nm."}, "[4]": {"conditions": "rats; reducing sugar formulation (Table 22); 24 hours after application; without microporation", "experimental": "as §1, with “The transdermal microporation was applied using the Applicator and Porator.” left out"}, "[5]": {"conditions": "mouse, sc, 30 ug, subcutaneous injection 30 μg"}, "[6]": {"conditions": "mouse, cerebrospinal fluid, sc, 30 ug"}},
  "note": "Ends that are not written are not given here.",
  "data": [
    {"sequence": "HRGHQPPPEMA [p3-Alcβ9-19]", "values": [
      {"measurement": "bioavailability", "setting": "in vivo [1]; CD, rat, plasma, iv", "value": 100, "unit": "%"},
      {"measurement": "bioavailability", "setting": "in vivo [1]; CD, rat, plasma, oral", "value": 0, "unit": "%"},
      {"measurement": "bioavailability", "setting": "in vivo [1]; CD, rat, plasma, other: nasal", "value": 0, "unit": "%"},
      {"measurement": "bioavailability", "setting": "in vivo [1]; CD, rat, plasma, other: passive transdermal", "value": 0, "unit": "%"},
      {"measurement": "Tmax", "setting": "in vivo [1]; CD, rat, plasma, other: transdermal microporation", "value": "~60", "unit": "min"},
      {"measurement": "bioavailability", "setting": "in vivo [1]; CD, rat, plasma, subcutaneous", "value": "120 to 275", "unit": "%"},
      {"measurement": "aBA (absolute bioavailability) vs IV (2 mg/body)", "setting": "in vivo [1]; Table 33, optimized formulations for immediate delivery, rats, 400 density, 4 mJ/filament", "value": "about 2000%"},
      {"measurement": "PK Profile", "setting": "in vivo [1]; Intravenous injection", "value": "Bolus absorption"},
      {"measurement": "PK Profile", "setting": "in vivo [1]; Nasal", "value": "No absorption"},
      {"measurement": "PK Profile", "setting": "in vivo [1]; Oral", "value": "No absorption"},
      {"measurement": "PK Profile", "setting": "in vivo [1]; Passive Transdermal", "value": "No absorption"},
      {"measurement": "PK Profile", "setting": "in vivo [1]; Subcutaneous injection", "value": "Bolus absorption"},
      {"measurement": "Absorption", "setting": "in vivo [1]; rats, 5 mg/head, oral, nasal, or passive transdermal routes", "value": "No absorption"},
      {"measurement": "Time by which blood concentrations disappeared", "setting": "in vivo [1]; rats, SC injection", "value": "≤ 1", "unit": "h"},
      {"measurement": "Relationship between p3-Alcβ9-19 dose and AUC, FIG. 16", "setting": "in vivo [1]; rats, immediate delivery, up to 50 mg of p3-Alcβ9-19 (tested dose)", "value": "liner dose-dependency"},
      {"measurement": "PK profiles", "setting": "in vivo [1]; rats, intravenous (IV) and subcutaneous (SC) injections", "value": "rapid absorption and quick elimination"},
      {"measurement": "AUC and Cmax versus p3-Alcβ9-19 dose, FIG. 19A/19B", "setting": "in vivo [1]; rats, optimized patch", "value": "increased p3-Alcβ9-19 dose-dependently"},
      {"measurement": "Relationship between p3-Alcβ9-19 dose and AUC, FIG. 17", "setting": "in vivo [1]; rats, sustained delivery, up to 25 mg of p3-Alcβ9-19 (tested dose)", "value": "liner dose-dependency"},
      {"measurement": "BA (relative bioavailability) vs SC (30 μg/body)", "setting": "[2]; subcutaneous injection 30 μg (reference)", "value": 100, "unit": "%"},
      {"measurement": "Cmax", "setting": "[2]; [5]", "value": "25.5 ± 12.5", "unit": "ng/mL"},
      {"measurement": "Tmax", "setting": "[2]; [5]", "value": 18.8, "unit": "min"},
      {"measurement": "AUC(0-t)", "setting": "[2]; mouse, sc, 30 ug, subcutaneous injection 30 μg, read-out: AUC0-360 (converted)", "value": 9.84, "unit": "ng·h/mL"},
      {"measurement": "BA (relative bioavailability) vs SC (30 μg/body)", "setting": "in vivo [3]; mice CSF, subcutaneous injection 30 μg (reference)", "value": 100, "unit": "%"},
      {"measurement": "AUC(0-t)", "setting": "in vivo [3]; [6]", "value": 5.01, "unit": "ng·h/mL"},
      {"measurement": "Cmax", "setting": "in vivo [3]; [6]", "value": "14.9 ± 10.7", "unit": "ng/mL"},
      {"measurement": "Tmax", "setting": "in vivo [3]; [6]", "value": 15, "unit": "min"},
      {"measurement": "p3-Alcβ9-19 recovered (drug residual)", "setting": "[4]", "value": "about 100%"}
    ]}
  ]
}
